Measurements from patent US20040063662A1, “Selenophene anti-tumor agents” (priority 1996, published 2004).

How the values were obtained:
[1] = tested on: NCI-H23; assay: NCI human tumor cell panel: NCI-H23 (Non-Small Cell Lung Cancer); assay type: cell-based; conditions: NCI-H23, read-out: Log10 GI50 (converted)
[2] = tested on: HOP-92; assay: NCI human tumor cell panel: HOP-92 (Non-Small Cell Lung Cancer)
[3] = tested on: MDA-N; assay: NCI human tumor cell panel: MDA-N (Breast Cancer); assay type: cell-based
[4] = tested on: SK-MEL-28; assay: NCI human tumor cell panel: SK-MEL-28 (Melanoma); assay type: cell-based
[5] = tested on: MALME-3M; assay: NCI human tumor cell panel: MALME-3M (Melanoma); assay type: cell-based; conditions: Malme-3M
[6] = tested on: U251; assay: NCI human tumor cell panel: U251 (CNS Cancer); assay type: cell-based
[7] = tested on: HS 578T; assay: NCI human tumor cell panel: HS 578T (Breast Cancer); assay type: cell-based
[8] = tested on: TK-10; assay: NCI human tumor cell panel: TK-10 (Renal Cancer); assay type: cell-based
[9] = tested on: OVCAR-3; assay: NCI human tumor cell panel: OVCAR-3 (Ovarian Cancer); assay type: cell-based
[10] = tested on: SR; assay: NCI human tumor cell panel: SR (Leukemia); assay type: cell-based
[11] = tested on: MOLT-4; assay: NCI human tumor cell panel: MOLT-4 (Leukemia); assay type: cell-based
[12] = tested on: OVCAR-4; assay: NCI human tumor cell panel: OVCAR-4 (Ovarian Cancer); assay type: cell-based; conditions: OVCAR-4, read-out: Log10 GI50 (converted)
[13] = tested on: PC-3; assay: NCI human tumor cell panel: PC-3 (Prostate Cancer); assay type: cell-based
[14] = tested on: MCF7/ADR-RES; assay: NCI human tumor cell panel: MCF7/ADR-RES (Breast Cancer); assay type: cell-based
[15] = tested on: HOP-62; assay: NCI human tumor cell panel: HOP-62 (Non-Small Cell Lung Cancer); assay type: cell-based
[16] = tested on: UACC-62; assay: NCI human tumor cell panel: UACC-62 (Melanoma); assay type: cell-based
[17] = tested on: A549/ATCC; assay: NCI human tumor cell panel: A549/ATCC (Non-Small Cell Lung Cancer); assay type: cell-based; conditions: read-out: Log10 TGI (converted)
[18] = tested on: SF-295; assay: NCI human tumor cell panel: SF-295 (CNS Cancer); assay type: cell-based; conditions: SF-295, read-out: Log10 GI50 (converted)
[19] = tested on: NCI-H322M; assay: cells; assay type: cell-based; conditions: Homo sapiens
[20] = tested on: MDA-MB-435; assay: NCI human tumor cell panel: MDA-MB-435 (Breast Cancer); assay type: cell-based
[21] = tested on: MCF7; assay: NCI human tumor cell panel: MCF7 (Breast Cancer); assay type: cell-based
[22] = tested on: ACHN; assay: NCI human tumor cell panel: ACHN (Renal Cancer); assay type: cell-based
[23] = tested on: CCRF-CEM; assay: NCI human tumor cell panel: CCRF-CEM (Leukemia); assay type: cell-based
[24] = tested on: HCT-116; assay: NCI human tumor cell panel: HCT-116 (Colon Cancer); assay type: cell-based
[25] = tested on: SK-MEL-5; assay: NCI human tumor cell panel: SK-MEL-5 (Melanoma); assay type: cell-based
[26] = tested on: A498; assay: NCI human tumor cell panel: A498 (Renal Cancer); assay type: cell-based
[27] = tested on: SNB-19; assay: NCI human tumor cell panel: SNB-19 (CNS Cancer); assay type: cell-based; conditions: SNB-19, read-out: Log10 GI50 (converted)
[28] = tested on: SF-539; assay: NCI human tumor cell panel: SF-539 (CNS Cancer); assay type: cell-based
[29] = tested on: HT29; assay: NCI human tumor cell panel: HT29 (Colon Cancer); assay type: cell-based
[30] = tested on: UACC-257; assay: NCI human tumor cell panel: UACC-257 (Melanoma); assay type: cell-based
[31] = tested on: NCI-H460; assay: NCI human tumor cell panel: NCI-H460 (Non-Small Cell Lung Cancer); assay type: cell-based
[32] = tested on: M14; assay: NCI human tumor cell panel: M14 (Melanoma); assay type: cell-based
[33] = read-out: Log10 GI50 (converted)
[34] = read-out: Log10 TGI (converted)

SMILES: O=Cc1ccc(-c2ccc(-c3ccc(C=O)[se]3)s2)s1 [compound 688829]
- GI50 [1]: > 100 µM
- GI50 ([2]; HOP-92, read-out: Log10 GI50 (converted)): 97.7 µM
- IC (TGI) ([2]; HOP-92, read-out: Log10 TGI): > 100 µM
- GI50 [3, 33]: 20.9 µM
- IC (TGI) [3, 34]: > 100 µM
- GI50 ([4]; SK-MEL-28, read-out: Log10 GI50 (converted)): 66.1 µM
- IC (TGI) ([4]; SK-MEL-28, read-out: Log10 TGI (converted)): > 100 µM
- GI50 [5, 33]: 28.8 µM
- IC (TGI) [5, 34]: > 100 µM
- GI50 ([6]; U-251, U251, read-out: Log10 GI50 (converted)): 0.245 µM
- IC (TGI) ([6]; U-251, U251, read-out: Log10 TGI (converted)): 25.7 µM
- GI50 [7, 33]: 2.88 µM
- IC (TGI) [7, 34]: > 100 µM
- GI50 ([8]; TK-10, read-out: Log10 GI50 (converted)): 0.0282 µM
- IC (TGI) ([8]; TK-10, read-out: Log10 TGI (converted)): 0.209 µM
- GI50 ([9]; OVCAR-3, read-out: Log10 GI50 (converted)): 0.129 µM
- IC (TGI) ([9]; OVCAR-3, read-out: Log10 TGI (converted)): 0.631 µM
- GI50 [10, 33]: 24.5 µM
- IC (TGI) [10, 34]: 72.4 µM
- GI50 ([11]; MOLT-4, read-out: Log10 GI50 (converted)): 57.5 µM
- IC (TGI) ([11]; MOLT-4, read-out: Log10 TGI (converted)): > 100 µM
- GI50 [12]: 0.186 µM
- GI50 ([13]; PC-3, read-out: Log10 GI50 (converted)): 28.2 µM
- IC (TGI) ([13]; PC-3, read-out: Log10 TGI (converted)): > 100 µM
- GI50 [14, 33]: 30.2 µM
- IC (TGI) [14, 34]: > 100 µM
- GI50 ([15]; HOP-62, read-out: Log10 GI50 (converted)): 0.251 µM
- IC (TGI) ([15]; HOP-62, read-out: Log10 TGI (converted)): 15.8 µM
- GI50 ([16]; UACC-62, read-out: Log10 GI50 (converted)): 0.141 µM
- IC (TGI) ([16]; UACC-62, read-out: Log10 TGI (converted)): > 100 µM
- IC (TGI) [17]: > 100 µM
- GI50 [18]: > 100 µM
- GI50 [19, 33]: 27.5 µM
- IC (TGI) [19, 34]: 89.1 µM
- GI50 ([20]; MDA-MB-435, read-out: Log10 GI50 (converted)): 33.1 µM
- IC (TGI) ([20]; MDA-MB-435, read-out: Log10 TGI (converted)): > 100 µM
- GI50 ([21]; MCF7, read-out: Log10 GI50 (converted)): 0.191 µM
- IC (TGI) ([21]; MCF7, read-out: Log10 TGI (converted)): > 100 µM
- GI50 [22, 33]: > 100 µM
- IC (TGI) [22, 34]: > 100 µM
- GI50 [23, 33]: 7.94 µM
- IC (TGI) [23, 34]: > 100 µM
- GI50 ([24]; HCT-116, read-out: Log10 GI50 (converted)): 0.295 µM
- IC (TGI) ([24]; HCT-116, read-out: Log10 TGI (converted)): > 100 µM
- GI50 ([25]; SK-MEL-5, read-out: Log10 GI50 (converted)): 23.4 µM
- IC (TGI) ([25]; SK-MEL-5, read-out: Log10 TGI (converted)): > 100 µM
- GI50 ([26]; A498, read-out: Log10 GI50 (converted)): 0.0214 µM
- IC (TGI) ([26]; A498, read-out: Log10 TGI (converted)): 0.0794 µM
- GI50 [27]: > 100 µM
- GI50 ([28]; SF-539, read-out: Log10 GI50 (converted)): 27.5 µM
- IC (TGI) ([28]; SF-539, read-out: Log10 TGI (converted)): > 100 µM
- GI50 ([29]; HT-29, HT29, read-out: Log10 GI50 (converted)): 23.4 µM
- IC (TGI) ([29]; HT-29, HT29, read-out: Log10 TGI (converted)): > 100 µM
- GI50 ([30]; UACC-257, read-out: Log10 GI50 (converted)): 0.195 µM
- IC (TGI) ([30]; UACC-257, read-out: Log10 TGI (converted)): 0.513 µM
- GI50 ([31]; NCI-H460, read-out: Log10 GI50 (converted)): 0.141 µM
- IC (TGI) ([31]; NCI-H460, read-out: Log10 TGI (converted)): > 100 µM
- GI50 ([32]; M14, read-out: Log10 GI50 (converted)): 20 µM
- IC (TGI) ([32]; M14, read-out: Log10 TGI (converted)): > 100 µM
